From article PMC11111691, “Cystine-knot peptide inhibitors of HTRA1 bind to a cryptic pocket within the active site region” (Nature Communications, 2024)
Entries after “also recorded” stand apart in the source; their conditions may differ. Positions of bridges follow the written chain, without caps; N, C: chain ends. Residues, ends and D or L forms follow the SMILES beside them.

Columns and labels:
[1] = MDCK trans-well cell permeability assay; type: in vitro ADME, canine; settings: dog, MDCK trans-well (protocol of Chen et al. 2018, canine Mdr1 knockout MDCK I), apical to basolateral, 50 µM CKP, 37C, 5% CO2, HBSS 25 mM HEPES pH 7.4, TOF/MS read-out, n = 4-6, read-out: Papp (apparent permeability)
Procedure: (§4) We carried out a cell permeability study using a MDCK trans-well assay, which is commonly
(§5) used at Genentech for permeability screening of compounds . This assay measures the flux of test
(§6) compound (Papp, apparent permeability) across a MDCK monolayer from the apical to the
(§7) basolateral compartment over a 16 h period.
sensitive mass spectrometry method .
(§8) 10x10-6 cm/s and compounds with Papp values of <1x10-6 cm/s are considered to be of low
Protocol of permeability assay:
(§9) Experiments were carried out as described (Chen et al. Evaluating the utility of canine Mdr1 knockout
(§10) Madin-Darby canine kidney I cells in permeability screening and efflux substrate determination, Mol
(§11) Cells were seeded in 96-well Corning Transwell plates (PET membrane, 1 µm pore size) at 75,000 cells
(§12) per well and grown in DMEM media supplemented with 10% FBS, 1% pen-strep and 1x Glutamax at
(§13) 37C, 5% CO2 for 48 h to ensure monolayer formation. Stock solutions of the three CKPs 1B3, 1D3-ENI
(§14) and 1G10-ENI were diluted in Hank's Balanced Salt solution containing 25 mM HEPES, pH 7.4 and 25
(§15) µM of the monolayer integrity marker lucifer yellow. CKPs at a concentration of 50 µM were added to
(§16) the apical (donor) chamber and the CKP the apparent permeability (Papp) was determined by quantifying
(§17) the amount of CKP in the basolateral (receiver) chamber after 16 h incubation at 37C, 5% CO2. The
(§18) samples from the basolateral chamber were supplemented with the experiment analytical internal standard
(§19) (100 nM propranolol in 50% ACN:50% water with 0.1% formic acid) and then injected in a Sciex Zeno
(§20) TOF 7600 mass spectrometer using TOF/MS mode.

MDCK monolayer = assay: MDCK trans-well cell permeability assay; type: in vitro ADME, canine; settings: MDCK trans-well, apical to basolateral, up to 50 µM, 16 h, mass spectrometry
Procedure: as §4, §5, §6, §7
sensitive mass spectrometry method .
as §8
Protocol of permeability assay:
as §9, §10, §11, §12, §13, §14, §15, §16, §17, §18, §19, §20

HeLa cells = assay: Cell toxicity assay (CellTiter-Glo), HeLa; type: cell-based; settings: 0.6-50 µM CKP, 24 h and 72 h, at least three independent experiments
Procedure: (§1) reduction at the highest CKP concentration of 50 µM after 72 h (see results below). The absence of cell toxicity is likely due to the inability of the CKPs to penetrate cell membranes, which was experimentally determined in response to another reviewer. Due to space limitations we have not […]
(§2) Protocol of cell toxicity assay (Figure above):
(§3) HeLa cells or C32 melanoma cells were passaged in DMEM media supplemented with 10% FBS, 1% pen-strep and 1x Glutamax using standard culture conditions (5% CO2, 90% humidity at 37°C). At approximately 95% confluence cells were trypsinized, seeded onto 96-well plates (Corning) at 10,000 cells/well and grown for 24 h. Cells were then incubated with the CKPs 3B3, 1D3-ENI and 1G10-ENI (0, 0.6, 1.9, 5.6, 16.7 and 50 µM) at 37°C for 24 h or for 72h. As a positive control we used staurosporine (STS; 1µM). Cell viability was measured using the CellTiter-Glo luminescent cell viability assay (Promega) on an Envision Multilabel plate reader. Average of at least three independent experiments ± S.D. were plotted in Prism 10. Two-way ANOVA was performed on each dataset and compared to no drug samples and no significant viability reductions were observed, except for some treatments at the […]

C32 melanoma cells = assay: Cell toxicity assay (CellTiter-Glo), C32; type: cell-based, human; settings: for Viability reduction, C32 cells, 72 h: 50 µM CKP; for Cell viability, C32 melanoma cells: 0.6-50 µM CKP, 24 h and 72 h, at least three independent experiments
Procedure: as §1, §2, §3

CKP stability assay = type: physicochemical; settings: chemical stability, PBS containing 0.15% DMSO, 0.3 mM (~1 mg/ml), 37 °C, LC-MS, HPLC UV 220 nm peak area normalized to DMSO peak, two independent experiments, preliminary
Procedure: The CKPs 1G10 and 1G10-ENI were incubated in PBS containing 0.15% DMSO at a concentration of 0.3 mM (~1 mg/ml) at 37 °C for 30 days. Samples from two independently performed experiments were frozen at −20 °C until further analysis. Thawed samples were diluted in H2O and injected into LC-MS (Agilent). From the HPLC UV trace (at 220 nm) the CKP peak area was normalized to the DMSO peak area from the same run. The values obtained from multiple HPLC runs were averaged and shown as dot plot.

SMILES	Papp A→B at 16 h, 50 µM [1] [×10⁻⁶ cm/s]	Cell permeability in the MDCK cell assay (MDCK monolayer)	Cell viability, HeLa cells (HeLa cells)	Viability reduction, C32 cells, 72 h (C32 melanoma cells) [%]	Cell viability, C32 melanoma cells (C32 melanoma cells)	Stability: intact peptide after 30 days (CKP stability assay)
CC[C@H](C)[C@H](N)C(=O)N[C@@H](Cc1c[nH]c2ccccc12)C(=O)N1CCC[C@H]1C(=O)N[C@@H](CC(=O)O)C(=O)N1CCC[C@H]1C(=O)N[C@H](C(=O)N[C@H]1CSSC[C@@H]2NC(=O)[C@H](Cc3ccccc3)NC(=O)[C@H](Cc3c[nH]c4ccccc34)NC(=O)[C@H](C)NC(=O)CNC(=O)[C@H](CO)NC(=O)[C@@H]3CSSC[C@@H](C(=O)NCC(=O)N[C@@H](Cc4c[nH]c5ccccc45)C(=O)NCC(=O)N[C@H](C(=O)N[C@@H](CCCNC(=N)N)C(N)=O)[C@@H](C)CC)NC(=O)[C@H](CO)NC(=O)[C@H](Cc4c[nH]c5ccccc45)NC(=O)[C@H](CC(N)=O)NC(=O)[C@H](C)NC(=O)[C@H](Cc4ccc(O)cc4)NC(=O)[C@H](Cc4ccc(O)cc4)NC(=O)[C@H](CSSC[C@H](NC(=O)[C@@H]4CCCN4C(=O)[C@H](CCCCN)NC(=O)[C@H](CC(N)=O)NC1=O)C(=O)N[C@@H](CCC(=O)O)C(=O)N[C@@H]([C@@H](C)O)C(=O)N[C@@H](Cc1c[nH]cn1)C(=O)N[C@@H](CC(=O)O)C(=O)N[C@@H](CC(=O)O)C(=O)N3)NC(=O)[C@H]([C@@H](C)O)NC(=O)[C@H](CCC(N)=O)NC2=O)[C@@H](C)CC [1D3-ENI] (H-IWPDPICNKPCETHDDCSGAWFCQTCYYANWSCGWGIR-NH2; disulfide 7-23, 11-26, 17-33)	< 0.003	no detectable cell permeability	did not appreciably affect cell viability	13	did not appreciably affect cell viability	–
CC[C@H](C)[C@H](NC(=O)CNC(=O)[C@H](Cc1c[nH]c2ccccc12)NC(=O)CNC(=O)[C@@H]1CSSC[C@@H]2NC(=O)[C@H](CC(=O)O)NC(=O)[C@H](CC(=O)O)NC(=O)[C@H](Cc3c[nH]cn3)NC(=O)[C@H]([C@@H](C)O)NC(=O)[C@H](CCC(=O)O)NC(=O)[C@@H]3CSSC[C@H](NC(=O)[C@H]([C@@H](C)O)NC(=O)[C@H](CCC(N)=O)NC(=O)[C@H](CSSC[C@H](NC(=O)[C@@H](NC(=O)[C@@H]4CCCN4C(=O)[C@H](CC(=O)O)NC(=O)[C@@H](NC(=O)[C@@H]4CCCN4C(=O)[C@@H](N)Cc4ccc(O)cc4)C(C)C)[C@@H](C)CC)C(=O)N[C@@H](CC(N)=O)C(=O)N[C@@H](CCCCN)C(=O)N4CCC[C@H]4C(=O)N3)NC(=O)[C@H](Cc3ccccc3)NC(=O)[C@H](Cc3c[nH]c4ccccc34)NC(=O)[C@H](C)NC(=O)CNC(=O)[C@H](CO)NC2=O)C(=O)N[C@@H](Cc2ccc(O)cc2)C(=O)N[C@@H](Cc2ccc(O)cc2)C(=O)N[C@@H](C)C(=O)N[C@@H](CC(N)=O)C(=O)N[C@@H](Cc2c[nH]c3ccccc23)C(=O)N[C@@H](CO)C(=O)N1)C(=O)N[C@@H](CCCNC(=N)N)C(N)=O [1G10-ENI] (H-YPVDPICNKPCETHDDCSGAWFCQTCYYANWSCGWGIR-NH2; disulfide 7-23, 11-26, 17-33)	< 0.003	no detectable cell permeability	did not appreciably affect cell viability	13	did not appreciably affect cell viability	no change in peptide mass at 30 days; also recorded: highly stable
